Laboratory results from US9221761B2, “Method for inhibition of deubiquitinating activity” (Vivolux AB, priority 2011, dated 2015).

Legend:
HCT116 = experiment: FMCA (Fluorometric Microculture Cytotoxicity Assay) cytotoxicity; format: cell-based; settings: 72 hours of continuous compound exposure
Experimental: FIGS. 1a to 1o are diagrams illustrating induction of dose-dependent cytotoxicity after 72 hours of continuous compound exposure to the reporter cell line HCT-116 by embodiments of the compound of the invention, as measured FMCA (Fluorometric Microculture Cytotoxicity Assay), as well as absence of such induction by structurally related compounds not comprised by the invention. Treated cells were compared to untreated controls (survival index);
Determination of cell apoptosis and viability. For determination of apoptosis parental HCT-116 p53+/+ cells are treated with the increasing doses of the compound of the invention for 24 h. […] HCT-116 cells are seeded in 96-well microtiter plates at 10,000 cells per well and incubated overnight. Cells are treated with indicated drug for 24 h. At the end of the incubation period, NP40 is added to the tissue culture medium to 0.1% and 25 μl of the content of each well was assayed using the M30-Apoptosense® ELISA as previously described (31). Cell viability is determined by measuring acid phosphatase activity or using the FMCA method (32). For the acid phosphatase activity cells are seeded at 5000 cells per well in 96-well culture plates and incubated for 12 h at 37° C. Compounds are added to the cells in growth media and incubated for 72 h at 37° C. Cells are washed with 200 μl warm PBS. 100 μl of para-nitrophenyl phosphate (pNPP, 2 mg/ml) in Na acetate buffer pH 5 (NaAc 0.1 M, 0.1% Triton-X-100) is added per well. Cells are incubated for 2 h after which reaction was stopped by addition of 1N NaOH. Absorbance is measured at 405 nm. The dose-dependent cytotoxicity of a number of embodiments of the compound of the invention is illustrated in FIGS. 1a-1o.
For the FMCA assay cells are seeded in the drug-prepared 384-well plates using the pipetting robot Precision 2000 (Bio-Tek Instruments Inc., Winooski, Vt.). The plates are incubated for 72 h and then transferred to an integrated HTS SAIGAN Core System consisting of an ORCA robot (Beckman Coulter) with CO2 incubator (Cytomat 2C, Kendro, Sollentuna, Sweden), dispenser module (Multidrop 384, Titertek, Huntsville, Ala.), washer module (ELx 405, Bio-Tek Instruments Inc), delidding station, plate hotels, barcode reader (Beckman Coulter), liquid handler (Biomek 2000, Beckman Coulter) and a multipurpose reader (FLUOstar Optima, BMG Labtech GmbH, Offenburg, Germany) for automated FMCA. Survival index (SI) is defined as the fluorescence of test wells in percentage of controls with blank values subtracted.
FIGS. 3b, 3d, 3f are diagrams illustrating the cytotoxicity of compounds of the invention nos. 1546, 1547, and 1570 with a 7-membered ring moiety in comparison to structurally corresponding compounds not comprised by the invention with a 6-membered ring moiety. Their induction of dose-dependent cytotoxicity was determined after 72 hours of continuous compound exposure to the reporter cell line HCT-116. Treated cells were compared with untreated controls. Cytotoxicity is visualized as survival index (SI) over the range of about 90% SI to about 0% SI in dependence on compound concentration.

[1] = tested on: MelJuSo Ub-YFP reporter cell line; experiment: Proteasome inhibition in reporter cell line, YFP accumulation in IncuCyte-FLR; format: cell-based; settings: YFP accumulation measured for 48 hours; for MeJuSo-UB, lowest effective conc.: Table 2
Description: Cell culture. MCF7 cells are maintained in MEM/10% fetal calf serum. HCT-116 p53+/+, p53−/−, Bcl-2+/+, PUMA−/− and BAX−/− cells are maintained in McCoy's 5A modified medium/10% fetal calf serum. The HCT-116 p53+/+, p53−/−, PUMA−/− and BAX−/− are generated as described (25). The HCT-116 Bcl-2+/+ cell line was generated by transfecting parental HCT-116 p53+/+ cells with pCEP4 Bcl-2 (Addgene plasmid 16461) (26) and isolating high expression clones. FaDu and LLC3 cells are maintained in DMEM high glucose medium supplemented with 10% fetal calf serum, Na pyruvate, Hepes and non-essential amino acids. 4T1.12B carcinoma cells are maintained in RPMI medium supplemented with 10% fetal calf serum. The proteasome reporter cell line MelJuSo Ub-YFP was generated as described (12). Cells were maintained in Dulbecco's Modified Eagle's Medium/10% fetal calf serum. […] The retinal epithelial cell line was generated as described (28). All cells are maintained at 37° C. in 5% CO2.
The compound of the invention induces proteasome inhibition. The reporter cell line MelJuSo Ub-YFP, which is engineered to accumulate yellow fluorescent protein (YFP) upon proteasome inhibition (12), was used for compound evaluation. The accumulation of YFP was measured for 48 hours in an IncuCyte-FLR system (Essen Bioscience, Essen, UK), which is an automated fluorescence microscope. Numbers of positive cells per field were used as a measure of proteasome inhibition.

Molecule | IC50 (HCT116; Table 1) [nM] | MeJuSo-UB, IncuCyte lowest effective conc. ([1]; Table 1) [µM] | IC50 (HCT116; Table 2) [nM] | MeJuSo-UB, lowest effective conc. [1] [µM] | also measured
O=C1C(=Cc2ccc(Cl)cc2)CCNCC1=Cc1ccc([N+](=O)[O-])cc1 [Compound 1592] | 12000 | 4 | – | – | –
O=C1C(=Cc2ccc([N+](=O)[O-])cc2)CCNCC1=Cc1ccc([N+](=O)[O-])cc1 [Compound 1613] | 25000 | 32 | – | – | –
CN1CCC(=Cc2ccc(F)cc2)C(=O)C(=Cc2ccc(Cl)cc2)C1 [Compound 1595] | 2300 | 1 | – | – | –
O=C1C(=Cc2ccc(C(F)(F)F)c(F)c2)CCNCC1=Cc1ccc(C(F)(F)F)c(F)c1 [Compound 1626] | 800 | 8 | – | – | –
O=C1C(=Cc2ccc(Cl)c(C(F)(F)F)c2)CCN(C(=O)Cc2cccnc2)CC1=Cc1ccc(Cl)c(C(F)(F)F)c1 [Compound 1655] | – | – | 1000 | 1 | –
CN1CCC(=Cc2cccc([N+](=O)[O-])c2)C(=O)C(=Cc2cccc([N+](=O)[O-])c2)C1 [Compound 1620] | > 32000 | – | – | – | MeJuSo-UB, IncuCyte lowest effective conc. (μM) ([1]; Table 1): no effect
CC(=O)OCCC(=O)N1CCC(=Cc2ccc(Cl)c(C(F)(F)F)c2)C(=O)C(=Cc2ccc(Cl)c(C(F)(F)F)c2)C1 [Compound 1666] | – | – | 1300 | 1 | –
CC(=O)N1CCC(=Cc2ccc(F)c(Cl)c2)C(=O)C(=Cc2ccc(F)c(Cl)c2)C1 [Compound 1631] | – | – | 1000 | 32 | –
C=CC(=O)N1CCC(=Cc2ccc(F)cc2)C(=O)C(=Cc2ccc(F)cc2)C1 [Compound 1568] | – | – | 1500 | 2 | –
CC(=O)OCC(=O)N1CC/C(=C\c2cc(F)c(F)c(F)c2)C(=O)/C(=C/c2cc(F)c(F)c(F)c2)C1 [Compound 1651] | – | – | 800 | 0.5 | –
CN1CCC(=Cc2ccc([N+](=O)[O-])cc2)C(=O)C(=Cc2ccc(F)cc2)C1 [Compound 1593] | 2900 | 1 | – | – | –
O=C1/C(=C/c2cc(F)c(F)c(F)c2)CCN(C(=O)Cc2ccccn2)C/C1=C\c1cc(F)c(F)c(F)c1 [Compound 1653] | – | – | 710 | 1 | –
CN1CCC(=Cc2ccc(F)c(C#N)c2)C(=O)C(=Cc2ccc(F)c(C#N)c2)C1 [Compound 1618] | 1500 | 0.5 | – | – | –
C=CC(=O)N1CCC(=Cc2ccc([N+](=O)[O-])cc2)C(=O)C(=Cc2ccc(OC)cc2)C1 [Compound 1580] | – | – | 1500 | 8 | –
CC(=O)OCC(=O)N1CC/C(=C\c2ccc(Cl)c(C(F)(F)F)c2)C(=O)/C(=C/c2ccc(Cl)c(C(F)(F)F)c2)C1 [Compound 1656] | – | – | 700 | 0.5 | –
O=C1C(=Cc2ccc(Cl)cc2)CCN(C(=O)c2cccnc2)CC1=Cc1ccc(Cl)cc1 [Compound 1637] | – | – | 2100 | 2 | –
O=C1C(=Cc2ccc([N+](=O)[O-])cc2)CCNCC1=Cc1ccc(F)cc1 [Compound 1596] | 2600 | 2 | – | – | –
O=C1C(=Cc2ccc(F)c([N+](=O)[O-])c2)CCNCC1=Cc1ccc(F)c([N+](=O)[O-])c1 [Compound 1562] | 500 | 0.25 | – | – | –
CC(=O)OCCC(=O)N1CCC(=Cc2ccc(Cl)cc2)C(=O)C(=Cc2ccc(Cl)cc2)C1 [Compound 1633] | – | – | 2200 | 4 | –

Molecule | IC50 (HCT116; Table 1) [nM] | MeJuSo-UB, IncuCyte lowest effective conc. ([1]; Table 1) [µM] | IC50 (HCT116; Table 2) [nM] | MeJuSo-UB, lowest effective conc. [1] [µM] | also measured
COc1ccc(C=C2CN(C(C)=O)CCC(=Cc3ccc(F)cc3)C2=O)cc1 [Compound 1578] | – | – | 7000 | 8 | –
COc1ccc(/C=C2\CN(C)CC/C(=C\c3ccc(F)cc3)C2=O)cc1 [Compound 1577, (3E,5E)-5-[(4-fluorophenyl)methylidene]-3-[(4-methoxyphenyl)methylidene]-1-methylazepan-4-one] | – | 8 | – | – | IC50 (HCT116; Homo sapiens, HCT-116, Table 1): 4900 nM
CC(=O)N1CCC(=Cc2ccc(C(F)(F)F)cc2)C(=O)C(=Cc2ccc(C(F)(F)F)cc2)C1 [Compound 1627] | – | – | 700 | 1 | –
CN1CCC(=Cc2ccc(F)cc2)C(=O)C(=Cc2ccc([N+](=O)[O-])cc2)C1 [Compound 1587] | 3000 | 1 | – | – | –
O=C1C(=Cc2ccc(F)cc2)CCNCC1=Cc1ccc(Cl)cc1 [Compound 1582] | 1700 | 2 | – | – | –
CC(=O)OCC(=O)N1CC/C(=C\c2ccc(Cl)c(F)c2)C(=O)/C(=C/c2ccc(Cl)c(F)c2)C1 [Compound 1645] | – | – | 2500 | 2 | –
O=C1C(=Cc2ccc(Cl)cc2)CCNCC1=Cc1ccc(F)cc1 [Compound 1586] | 1100 | 0.5 | – | – | –
O=C1C(=Cc2ccc(C(F)(F)F)cc2)CCN(C(=O)Cc2cccnc2)CC1=Cc1ccc(C(F)(F)F)cc1 [Compound 1641] | – | – | 2700 | 2 | –
O=C1C(=Cc2ccc(F)cc2)CCNCC1=Cc1ccc(F)cc1 [Compound 1561] | 1000 | 1 | – | – | –
O=C1C(=Cc2ccc(Cl)cc2)CCN(C(=O)Cc2ccccc2)CC1=Cc1ccc(Cl)cc1 [Compound 1635] | – | – | 1400 | 2 | –
CCOc1cc(CC(=O)N2CCC(=Cc3ccc(Cl)cc3)C(=O)C(=Cc3ccc(Cl)cc3)C2)ccc1O [Compound 1639] | – | – | 1200 | 1 | –
CN1CCC(=Cc2ccc(F)c(Cl)c2)C(=O)C(=Cc2ccc(F)c(Cl)c2)C1 [Compound 1608] | 1800 | 1 | – | – | –
O=C1C(=Cc2ccc(Cl)cc2)CCN(C(=O)c2cccs2)CC1=Cc1ccc(Cl)cc1 [Compound 1638] | – | – | 2000 | 2 | –
CC(=O)N1CCC(=Cc2ccc(Cl)c(F)c2)C(=O)C(=Cc2ccc(Cl)c(F)c2)C1 [Compound 1630] | – | – | 900 | 0.5 | –
(3E,5E)-1-acetyl-5-[(4-fluorophenyl)methylidene]-3-[(4-ethoxyphenyl)methylidene]azepan-4-one [Compound 1579] | – | – | 5900 | 8 | –
CN1CCC(=Cc2ccc(F)c(C(F)(F)F)c2)C(=O)C(=Cc2ccc(F)c(C(F)(F)F)c2)C1 [Compound 1609] | 1400 | 1 | – | – | –
CN1CCC(=Cc2ccc(F)c(F)c2)C(=O)C(=Cc2ccc(F)c(F)c2)C1 [Compound 1610] | 1700 | 1 | – | – | –
C=CC(=O)N1CCC(=Cc2cccc([N+](=O)[O-])c2)C(=O)C(=Cc2cccc([N+](=O)[O-])c2)C1 [Compound 1572] | – | – | 2500 | 0.5 | –
